In patent US9057727B2, “Screening methods using G-protein coupled receptors and related compositions” (The General Hospital Corporation, priority 2007, dated 2015):
Read-outs that look alike come from different tables or passages of the source. Peptide text beside a SMILES is read from it.

Tests used:
SaOS cells = test: cAMP production in SaOS cells, dose-response; assay type: cell-based
MC3T3-E1 cells = test: cAMP in MC3T3-E1 cells, dose-response; assay type: cell-based; conditions: Table 2; read-out: MC3T3-E1 cAMP EC50
Experimental: In the 1-30 scaffold, Gly, Ser, Leu, Asn, Gln, Trp, Glu, and Lys were substituted at position 29; Gly, Ser, Leu, Asn, Asp, Trp, and Lys were substituted at position 30; and Ser, Leu, Asn, Val, Trp, Glu, and Lys were substituted at position 31. […] These peptides were tested for cAMP activity in MC3T3-E1 cells.

[1] = target: T1, human PTHR, G protein-coupled conformation (RG) (Homo sapiens, UniProt Q03431); test: Competition binding to RG conformation of hPTHR (COS-7 membranes, GαsND, 125I-[Aib1,3,M]PTH(1-15) tracer); conditions: Table 2; read-out: RG binding affinity hPTHR IC50
T1 construct: expressed in transfected cells; host or cells: COS-7, transient (Fugene-6); membranes
T1 sequence (Q03431 27-593): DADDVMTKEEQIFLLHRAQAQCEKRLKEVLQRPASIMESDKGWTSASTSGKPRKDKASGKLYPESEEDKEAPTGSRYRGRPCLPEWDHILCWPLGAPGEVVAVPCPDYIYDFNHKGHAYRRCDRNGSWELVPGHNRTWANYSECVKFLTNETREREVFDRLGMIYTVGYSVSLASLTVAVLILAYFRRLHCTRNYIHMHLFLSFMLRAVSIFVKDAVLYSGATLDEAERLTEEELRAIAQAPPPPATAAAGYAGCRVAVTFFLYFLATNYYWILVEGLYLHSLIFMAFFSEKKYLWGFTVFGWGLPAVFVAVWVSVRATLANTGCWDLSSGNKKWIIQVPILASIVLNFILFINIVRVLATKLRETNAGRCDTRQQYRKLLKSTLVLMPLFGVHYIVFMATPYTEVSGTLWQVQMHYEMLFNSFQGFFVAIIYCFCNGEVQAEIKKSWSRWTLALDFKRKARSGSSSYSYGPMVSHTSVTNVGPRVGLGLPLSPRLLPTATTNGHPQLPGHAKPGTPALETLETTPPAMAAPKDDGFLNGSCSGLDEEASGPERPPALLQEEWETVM

[2] = target: T2, human PTHR, G protein-uncoupled conformation (R^0) (Homo sapiens, UniProt Q03431); test: Competition binding to R0 conformation of hPTHR (COS-7 membranes, GTPγS, 125I-PTH(1-34) tracer); conditions: Table 2
T2 construct: expressed in transfected cells; host or cells: COS-7, transient (Fugene-6)
T2 sequence (Q03431 27-593): T1 sequence (Q03431 27-593)
Method in brief: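 Membranes from hPTHR-transfected COS-7 cells (20-100 μg/mL protein) incubated 90 min with radioligand (~150,000 cpm/ml) and unlabeled ligands, then filtered. Specific binding expressed as % of binding without competitor.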

[3] = system: LLCPK1-B64 cells or SaOS-2 cells; test: cAMP screen of substituted PTHrP(1-28) analogs (% parent); assay type: cell-based; conditions: parent PTHrP(1-28)NH
Method in brief: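 LLCPK1-B64 or SaOS-2 cells exposed to peptide analogs at 3×10^−9M with IBMX for 30 minutes at room temperature, then cAMP measured. Each analog's response expressed as percentage of that for parent PTHrP(1-28).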

[4] = Plasma cAMP in C57BL/6 mice after intravenous injection; assay type: in vivo; conditions: i.v. (Example 4)
Experimental: Blood was withdrawn 10 minutes after injection, and the plasma level of cAMP was measured by RIA.
Blood was withdrawn 10 minutes after injection and plasma level of cAMP was measured by RIA.
In the cAMP experiment (FIG. 29A), blood was withdrawn 10 minutes after injection and plasma level of cAMP was measured by RIA.

[5] = target: T3, ROS 17/2.8 cells (endogenous rat PTHR) (Rattus norvegicus, UniProt P25961); test: Delayed cAMP response in ROS 17/2.8 cells; assay type: cell-based
T3 construct: the rat osteoblastic cell line ROS17/2.8, which endogenously expresses the rat PTHR; endogenous in cells; host or cells: ROS 17/2.8 rat osteosarcoma cells (membranes or intact cells)
T3 sequence (P25961 27-591): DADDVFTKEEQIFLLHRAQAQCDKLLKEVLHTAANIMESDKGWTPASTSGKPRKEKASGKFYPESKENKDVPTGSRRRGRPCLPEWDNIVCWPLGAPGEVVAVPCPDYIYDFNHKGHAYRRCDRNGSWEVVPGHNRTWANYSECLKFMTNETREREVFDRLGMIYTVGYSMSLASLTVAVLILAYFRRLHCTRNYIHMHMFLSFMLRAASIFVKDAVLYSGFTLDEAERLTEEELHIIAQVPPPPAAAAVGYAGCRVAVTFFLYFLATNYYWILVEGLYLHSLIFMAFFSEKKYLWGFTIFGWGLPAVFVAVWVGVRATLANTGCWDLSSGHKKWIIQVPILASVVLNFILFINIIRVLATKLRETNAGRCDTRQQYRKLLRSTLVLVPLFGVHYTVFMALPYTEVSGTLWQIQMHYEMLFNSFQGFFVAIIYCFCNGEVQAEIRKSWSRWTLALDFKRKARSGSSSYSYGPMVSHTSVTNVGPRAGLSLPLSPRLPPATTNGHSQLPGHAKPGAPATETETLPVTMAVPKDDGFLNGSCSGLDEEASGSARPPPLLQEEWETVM
Experimental: The analogs used were [E^19],Mc-hPTH(1-34)OH (SEQ ID NO:21) and [A^23,E^19],Mc-hPTH(1-34)OH (SEQ ID NO:28) (Mc=Ala^1,3,12,Gln^10,Arg^11,Trp^14, Arg^19).
The data in FIG. 21B are expressed as a percent of the maximum response observed for each ligand, determined by incubating the cells with ligand in the presence of IBMX for 10 minutes (no ligand wash-out). These values were 67±6; 68±3; and 71±1 pmole/well, respectively. The basal (vehicle) cAMP value was 3.7±0.4 pmole/well.
Following treatment of cells with a ligand, the intracellular cAMP levels were measured by radioimmuno assay, as described (Shimizu et al., J. Biol. Chem. 276:49003-49012 (2001)). The capacities of ligands to produce a delayed cAMP response in cells after a brief exposure to the ligand was assessed as follows. […]

[6] = Calcemic action in normal rats (blood ionized calcium); assay type: in vivo
Method in brief: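 Female SD-IGS rats, 8 weeks old, dosed intravenously at 1 ml/kg with peptides in PC-buffer (pH 5.0), 6 per group. Tail-vein blood ionized calcium corrected to pH 7.4 at baseline and 1, 2, 4, 6 h. Time course versus vehicle as mean ± SE.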

[7] = Serum and urinary calcium and phosphate in TPTX rats; assay type: in vivo
Experimental: Five-week-old male Crl:CD(SD) rats were obtained from Charles River Laboratories Japan, Inc. (Kanagawa, Japan) and acclimated for 1 week under standard laboratory conditions at 20-26° C. and 35-75% humidity. The rats received free access to tap water and standard rodent chow (CE-2) containing 1.1% calcium, 1.0% phosphate and 250 IU/100 g of vitamin D3 (Clea Japan, Inc., Shizuoka, Japan).
Thyroparathyroidectomy (TPTX) was performed on six-week-old rats. TPTX rats were selected for use based on serum ionized calcium (iCa) levels (<1.0 mM) in samples taken from tail vein bleeding at 24 hours or […] after the operation using the electrode method. The TPTX rats were divided into six groups of five animals based on iCa levels at 48 hours after the operation. TPTX-vehicle group intravenously received the vehicle alone (10 mM acetic acid solution) at a dose of 1 ml/kg body weight administered to the tail vein.
Blood was obtained from the tail vein for detecting iCa at 1, 2, 4, 6, and 24 hours after each injection. Ionized calcium levels were determined by the electrode method using an autoanalyzer (M-634, Chiba Corning Diagnostics Co. Ltd., Tokyo, Japan).
We also studied the effects of the M-PTH(1-14)/PTHrP(15-36) hybrid peptide (SP-PTH) on serum and urinary calcium and phosphate.

[8] = target: T4, hPTH1R (R0 form of the human PTH receptor) (Homo sapiens, UniProt Q03431); test: R0 memb: hPTH1R*PTH( 1-34)+GTPgS
T4 construct: expressed in transfected cells; host or cells: COS-7, transient (Fugene-6)

[9] = target: hPTH1R (RG form of the human PTH receptor); test: RG memb: hPTH1R+dnGS *M-PTH(1-15)

Row | Compound | cAMP-inducing activity compared with parent, in words (SaOS cells) | EC50 (SaOS cells; Table 2, read-out: SaOS camp EC50) | EC50 (SaOS cells; Table 3, read-out: dose-response cAMP in SaOS (EC50)) | EC50 (MC3T3-E1 cells) | IC50 [1] | R0/RG selectivity ([2]; hPTHR) | IC50 ([2]; read-out: R^0 binding affinity hPTHR IC50) | screen cAMP (% parent) [3] | plasma cAMP 10 minutes after injection, in words [4] | duration of cAMP signaling, in words [5] | calcemic action compared with control peptides, in words ([6]; normal and TPTX rats) | calcemic action (blood ionized calcium), in words ([6]; normal rats, i.v.) | duration of calcemic / sCa and sPi effect, in words [7] | duration of calcemic / sCa and sPi effect, in words ([7]; listed as SP-PTH) | serum calcium (sCa) and serum phosphorus (sPi), in words ([7]; single i.v. 1.25 nmol/kg) | urinary calcium 0-6 hours, in words ([7]; single i.v. 1.25 nmol/kg) | urinary phosphate 0-6 hours, in words ([7]; single i.v. 1.25 nmol/kg) | IC50 [8] | IC50 [9]
1 | CC[C@H](C)[C@H](NC(=O)[C@H](CC(C)C)NC(=O)[C@H](CCCCN)NC(=O)[C@H](CC(C)C)NC(=O)[C@H](CC(C)C)NC(=O)[C@H](Cc1ccccc1)NC(=O)[C@H](C)NC(=O)[C@H](CCCNC(=N)N)NC(=O)[C@H](CCCNC(=N)N)NC(=O)[C@H](CCCNC(=N)N)NC(=O)[C@H](CCC(=O)O)NC(=O)[C@H](CC(=O)O)NC(=O)[C@H](CCC(N)=O)NC(=O)[C@@H](NC(=O)[C@H](CO)NC(=O)[C@H](CCCCN)NC(=O)CNC(=O)[C@H](CCCCN)NC(=O)[C@H](CC(=O)O)NC(=O)[C@H](Cc1c[nH]cn1)NC(=O)[C@H](CC(C)C)NC(=O)[C@H](CC(C)C)NC(=O)[C@H](CCC(N)=O)NC(=O)[C@H](Cc1c[nH]cn1)NC(=O)[C@H](CCC(=O)O)NC(=O)[C@H](CO)NC(=O)[C@@H](NC(=O)[C@H](C)N)C(C)C)[C@@H](C)CC)C(N)=O [E18, A22, L25, K26-THrP(1-28)NH, E18,A22,L25,K26-PTHrP(1-28)] (H-AVSEHQLLHDKGKSIQDERRRAFLLKLI-NH2; N-terminus assumed) | Marked enhancements of cAMP-inducing activity | 0.01 nM | 0.01 nM | 0.083 nM | 0.1 nM | 18317 | 1740 nM | 340 % parent | Marked enhancements |  |  |  |  |  |  |  |  |  | 
2 | CC[C@H](C)[C@H](NC(=O)[C@H](CCC(=O)O)NC(=O)[C@H](C)NC(=O)[C@@H](NC(=O)[C@H](Cc1c[nH]cn1)NC(=O)[C@@H](NC(=O)[C@H](CCC(=O)O)NC(=O)[C@H](C)NC(=O)[C@@H](NC(=O)[C@H](CC(C)C)NC(=O)[C@H](Cc1c[nH]cn1)NC(=O)[C@H](Cc1c[nH]cn1)NC(=O)[C@H](CC(C)C)NC(=O)[C@H](Cc1ccccc1)NC(=O)[C@H](Cc1ccccc1)NC(=O)[C@H](CCCNC(=N)N)NC(=O)[C@H](CCCNC(=N)N)NC(=O)[C@H](CCCNC(=N)N)NC(=O)[C@H](CC(C)C)NC(=O)[C@H](CC(=O)O)NC(=O)[C@H](CCC(N)=O)NC(=O)[C@@H](NC(=O)[C@H](Cc1c[nH]c2ccccc12)NC(=O)[C@H](CCCCN)NC(=O)[C@H](C)NC(=O)[C@H](CCCNC(=N)N)NC(=O)[C@H](CCC(N)=O)NC(=O)[C@H](Cc1c[nH]cn1)NC(=O)[C@H](CCSC)NC(=O)[C@H](CC(C)C)NC(=O)[C@H](CCC(N)=O)NC(=O)[C@@H](NC(=O)[C@H](CCC(=O)O)NC(=O)[C@H](C)NC(=O)[C@@H](NC(=O)[C@H](C)N)C(C)C)[C@@H](C)CC)[C@@H](C)CC)[C@@H](C)CC)[C@@H](C)CC)[C@@H](C)O)C(=O)O [Mc-PTH(1-14)/PTHrP(15-36)] (H-AVAEIQLMHQRAKWIQDLRRRFFLHHLIAEIHTAEI-OH) |  |  |  |  |  |  |  |  |  | prolonged cAMP signaling | higher calcemic actions than did PTH(1-34) | Prolonged calcemic effects | prolonged calcemic effects | maintained for 24 hrs | increased sCa and decreased sPi to normal levels within 6 hrs | decreased urinary calcium | increased urinary phosphate level | 2.7 nM | 0.67 nM
